Test results published in patent US12146142B2, “Methods for improving genome engineering and regeneration in plant II” (KWS SAAT SE & Co. KGaA, priority 2018, dated 2024).

Legend:
[1] = system: maize A188 immature embryos; assay: Embryogenic structure induction after transient co-bombardment of boost gene constructs; format: cell-based; conditions: 1 month after bombardment, co-bombarded with Tdt (FIG. 12)
Protocol: At 9-12 days post pollination, maize ears (i.e. A188 or Hi II) with immature embryos having a size of 0.8 to 1.8 mm, preferably 1.0-1.5 mm, were harvested. The ears were sterilized with 70% ethanol for 10-15 minutes. After brief air drying in a laminar hood, the top ˜⅓ of the kernels were removed from the ears with a shark scalpel, and the immature embryos were pulled out of the kernels carefully with a spatula. The fresh isolated embryos were placed onto the bombardment target area in an osmotic medium plate (see below) with scutellum-side up. The plates were wrapped with parafilm and incubated at 25° C. in the dark for 4 hours before bombardment. […]
After bombardment, the embryos remained on the osmotic medium for another 16 hours. Transient transformation was examined using a fluorescence microscope for the tDT expression at excitation maximum 554 nm and emission maximum 581 nm 16-20 hours after bombardment. The embryos with dense fluorescent signals under a fluorescence microscope (FIG. 9) were selected and transferred from N6OSM onto a N6-5Ag plate (˜15 embryos per plate) with scutellum-face-up for callus induction (see below). […]
The embryos with dense fluorescent signals under a fluorescence microscope (FIG. 9) were selected and transferred from N6OSM onto N6-5Ag for embryonic callus induction. […] Embryogenic callus induction was monitored by observation under a dissection microscope. […]

maize genotype A188 = assay: Regeneration of transgenic plants after stable integration of boost gene constructs including Pat-Tdt; format: cell-based; conditions: construct including Pat-Tdt
Source text: This strong boost effect on the level of the embryo was also effective to the efficiency of regeneration of whole transgenic plant.

[2] = system: maize Hi II immature embryos; assay: Stable transformation frequency of co-delivered tDT report gene without selection; format: cell-based; conditions: transient expression, 10 days after co-bombardment
Protocol: Maize embryo preparation, transient bombardment, and embryonic callus induction are described in Examples 1 and 2. The embryos were cultured in N6-5Ag medium at 27° C. in the dark for 14 days. tDT fluorescence was used to monitor embryogenic callus induction and stable transformation by observation under a fluorescent microscope. Specifically, the boost effect was measured by its capability to increase transformation frequency (TF) of the tDT report gene […] after bombardment without a selection.
The strong and uniformed tDT fluorescent signals from the emerging embryonic structures in FIG. 14 indicated integration and stable transformation of tDT gene. Stable transformation frequency is defined as the number of embryos with at least one stable tDT fluorescent structures induced from 100 embryos initially used. Stable transformation frequency was measured 10 days after bombardment.

maize Hi II genotype = assay: Stable transformation of boost gene in Hi II genotype and appearance of the transgenic plants; format: in vivo
Source text: Stable transformation of ZmPLT7 gene in Hi II genotype was successful.

maize A188 plants = assay: Phenotype of adult plants regenerated from stable transformation of A188; format: in vivo; conditions: stable transgenic integration, A188, compared to normal A188 plants (FIG. 13)
maize WUS2 promoter = assay: Maize WUS2 promoter tDT report construct co-bombarded with boost factor; format: cell-based; conditions: for activation of maize WUS2 promoter / gene: transient co-bombardment in immature embryos and leaves
Source text: Homeobox domain transcriptional factor WUSCHEL (WUS) plays an important role in establishing and maintaining of shoot meristem. To identify boost factors that promote endogenous WUS2 expression, the maize WUSCHEL 2 promoter report construct (pAMK-ZmWUS2-tDT-noT) (SEQ ID NO: 29; FIG. 16) was used to illustrate maize WUS2 promoter activity. The maize WUS2 promoter (pZmWUS2) drove expression of the tDT report gene in this report construct (FIG. 16). The WUS2 promoter report construct was co-bombarded with boost factors individually in maize immature embryos and leaf segments.
Fresh leaf segments of 1-2 cm in length were prepared from the in vitro-cultured maize A188 seedling of 10-14 days old, and placed on the Osmotic medium with abaxial side up for 4 hours. For co-bombardment, two plasmids (100 ng of ZmWUS2 promoter report (FIG. 16) and 100 ng of boost construct, e.g. TaRKD4 (FIG. 5)) were premixed and coated onto 100 μg of gold particles size 0.4 μm. Immature embryo preparation, bombardment, and post-bombardment culturing were carried out as described in Example 1 and Example 2. Red fluorescence showing tDT expression was monitored using a fluorescent microscope started at 16 hours after bombardment.

[3] = A188 leaf segments, after bombardment, co-bombarded with pZmWUS2 report

| Substance | quantification of embryonic structures with Tdt formation per embryo [1] | efficiency of regeneration of transgenic plants (maize genotype A188) | effect on stable transformation of co-delivered tDT report gene [2] | stable transformation of the boost gene (maize Hi II genotype) | appearance of transgenic plants (maize Hi II genotype; single construct, compared to normal A188 plants (FIG. 15)) | phenotype of produced transgenic plants (maize A188 plants) | time at which tDT signal peaked (maize WUS2 promoter; [3]) | time at which tDT signal was detected (maize WUS2 promoter; [3]) | tDT red fluorescent signal (maize WUS2 promoter; immature embryos, 44 hours after bombardment, compared to WUS promoter reporter only (weak signals)) | activation of maize WUS2 promoter / gene (maize WUS2 promoter) | activation of maize WUS2 promoter / gene (maize WUS2 promoter; listed as TaRKD4) |
| --- | --- | --- | --- | --- | --- | --- | --- | --- | --- | --- | --- |
| ZmPLT7: maize PLT7 gene expression construct driven by strong constitutive Brachypodium EF1 promoter (SEQ ID NO: 27; cDNA SEQ ID NO: 3) | slightly increased amount/development of embryonic structures per embryo | no transgenic plants have been produced successfully | promotes stable transformation frequency | successful | comparable appearance than the normal A188 maize plants | – | – | – | – | – | – |
| ZmWUS2: maize WUS2 gene expression construct driven by strong constitutive Brachypodium EF1 promoter (SEQ ID NO: 28; cDNA SEQ ID NO: 1) | slightly increased amount/development of embryonic structures per embryo | transgenic plants at a low level of efficiency | – | – | – | without any detrimental phenotype | – | – | – | – | – |
| wheat RKD4: wheat RKD4 gene, maize-codon optimized, expression construct driven by Brachypodium EF1 promoter (SEQ ID NO: 34) | – | – | – | – | – | – | around 44 hours | around 36 hours | extremely strong red fluorescent signals | strongly activate maize WUS2 genes | activates maize WUS2 promoter |
